What was measured:
[1] = target: T1, ΔεCT-F0F1 (F0F1 with C-terminal-truncated ε subunit) (Bacillus sp. PS3, UniProt P07677+P09219); assay: cryo-EM structure; type: binding; conditions: unisite conditions (substoichiometric ATP with PEP / pyruvate kinase), 25 °C, pH 8.0; catalytic site of closed βTP
T1 construct: gene atpD; holo complex, ε lacks residues 83-133; derived from pTR19-ASDS, expressed in E. coli, DDM-solubilised, Ni-NTA purified, nucleotide-depleted; PS3 origin is judgement; with ATP synthase gamma chain; ATP synthase epsilon chain; ATP synthase subunit delta; ATP synthase subunit a; ATP synthase subunit b; ATP synthase subunit c

[2] = target: T2, wt-F0F1 (wild-type F0F1-ATPase / ATP synthase) (Bacillus sp. PS3, UniProt P07677+P07678+P09219); assay: cryo-EM structure; type: binding
T2 construct: gene atpD; holo complex α3β3γ1ε1δ1a1b2c10 from pTR19-ASDS, expressed in E. coli DK8, DDM-solubilised, Ni-NTA purified, nucleotide-depleted; with ATP synthase gamma chain; ATP synthase epsilon chain; ATP synthase subunit delta; ATP synthase subunit a; ATP synthase subunit b; ATP synthase subunit c

Structure (SMILES)	cryo-EM structure [1]	cryo-EM structure ([2]; sample exposed to 4 mM ATPγS, catalytic βDP (ε down), βTP and βDP (ε up))	cryo-EM structure ([2]; 4 mM ATPγS, ε-down form: catalytic βE and βTP and noncatalytic α sites, also bound in the retracted ε subunit (second site), ε-up form: βE)
Nc1ncnc2c1ncn2[C@@H]1O[C@H](COP(=O)(O)OP(=O)(O)O)[C@@H](O)[C@H]1O [ADP]	revealed a nucleotide density due to ADP at the catalytic site in βTP	“closed in βTP with ADP,” and “open in βDP with ADP”	
Nc1ncnc2c1ncn2[C@@H]1O[C@H](COP(=O)(O)OP(=O)(O)OP(O)(O)=S)[C@@H](O)[C@H]1O [ATPγS]			“open in βE with ATPγS,” “closed in βTP with ATPγS,” and “closed in βDP with ADP

Reference: publication PMC9896953, “Structural basis of unisite catalysis of bacterial F0F1-ATPase” (PNAS Nexus, 2022)
